Measurements published in patent US6313090A, “Methods for treating parasitic infection using thiopeptides” (The United States of America as represented by the …, priority 2000, dated 2001).

System: MDBKF5D2 cell monolayers
Assay: Toxicity testing assay (MTS/PMS, OD 490 nm)
Assay type: cell-based
Procedure: (§1) Toxicity Testing Assay. 200 μl of medium containing drug at the above-mentioned concentrations and positive control preparations [paromomycin/DMSO (2 mg/ml/0.2%)] were introduced into two wells of a 96 well plate containing confluent MDBKF5D2 cell monolayers (ATCC accession number CCL-22) infected with intact C. parvum GCH1 oocysts (5.0×10^4 per well) (43) and two wells without monolayers. The drug was incubated on the monolayers at 37° C. and 8% CO2. At 48 hours, MTS (Owen's solution) and PMS were added to each well at concentrations of 333 μg/ml and 25 μM respectively. The plate was returned to the incubator in the dark to develop for two hours. At two hours, 100 μl of each supernatant was transferred to a new microtiter plate and the optical density (OD) was read in an ELISA plate reader at 490 nm.
Percent toxicity was calculated by subtracting the mean drug OD from the medium OD, divided by the medium OD, all of which was then multiplied by 100, as shown in the equation below. Cytotoxicity scores were assigned as follows: 0-5% toxicity=0, 6-25% toxicity=1, 26-50% toxicity=2, 51-75% toxicity=3, and 76-100% toxicity=4. As a standard, cytotoxicity scores of 0 or, 1 were considered acceptable levels of toxicity. Toxicity scores of 2, 3, or 4 were considered as high levels of toxicity to the cell monolayer. [formula]
as §1, with “containing drugs” for “containing drug”, “monolayers” for “monolayers (ATCC accession number CCL-22)”, “well)” for “well) (43)”, “and 25μM” for “and 25 μM”
Percent toxicity was calculated by subtracting the mean drug OD from the medium OD, divided by the medium OD, all of which was then multiplied by 100, as shown in the equation below. Cytotoxicity scores were assigned as follows: 0-5% toxicity=0, 6-25% toxicity=1, 26-50% toxicity=2, 51-75% toxicity=3, and 76-100% toxicity=4. As a standard, cytotoxicity scores of 0 or 1 were considered acceptable levels of toxicity. Toxicity scores of 2, 3, or 4 were considered as high levels of toxicity to the cell monolayer. [formula]
as §1, with “monolayers” for “monolayers (ATCC accession number CCL-22)”, “well)” for “well) (43)”, “25μM” for “25 μM”

[1] = Table 2, 2 mg/ml, listed as PRM/DMSO
[2] = Table 4 Washed at 4 hours, 250 μg/ml
[3] = Table 4 Washed at 4 hours, 500 μg/ml
[4] = Table 4 Washed at 4 hours, 1000 μg/ml
[5] = Table 4 Washed at 4 hours, 2000 μg/ml
[6] = Table 5, 2000 μg/ml, drug added at 0 hrs
[7] = Table 5, 2000 μg/ml, drug added at 2 hrs
[8] = Table 5, 2000 μg/ml, drug added at 4 hrs
[9] = Table 5, 2000 μg/ml, drug added at 8 hrs
[10] = Table 5, 2000 μg/ml, drug added at 24 hrs

NC[C@@H]1O[C@H](O[C@H]2[C@@H](O)[C@H](O[C@@H]3[C@@H](O)[C@H](N)C[C@H](N)[C@H]3O[C@H]3O[C@H](CO)[C@@H](O)[C@H](O)[C@H]3N)O[C@@H]2CO)[C@H](N)[C@@H](O)[C@@H]1O [PRM, paromomycin]
Tox. O.D. (Table 1, 2000 μg/ml): .868
Toxicity Percent (Table 1, 2000 μg/ml): 21.09%
Toxicity Score (Table 1, 2000 μg/ml): 1 (6-25% toxicity=1)
Tox. O.D. (Table 2, 2 mg/ml): .954
Toxicity Percent (Table 2, 2 mg/ml): -4.38%
Toxicity Score (Table 2, 2 mg/ml): 0 (0-5% toxicity=0)
Tox. O.D. [1]: .963
Toxicity Percent [1]: 4.37%
Tox. O.D. (Table 3 Unwashed, 250 μg/ml): 1.121
Toxicity Percent (Table 3 Unwashed, 250 μg/ml): -7.53%
Toxicity Score (Table 3 Unwashed, 250 μg/ml): 0 (0-5% toxicity=0)
Tox. O.D. (Table 3 Unwashed, 500 μg/ml): 1.019
Toxicity Percent (Table 3 Unwashed, 500 μg/ml): 2.30%
Toxicity Score (Table 3 Unwashed, 500 μg/ml): 0 (0-5% toxicity=0)
Tox. O.D. (Table 3 Unwashed, 1000 μg/ml): .963
Toxicity Percent (Table 3 Unwashed, 1000 μg/ml): 7.67%
Toxicity Score (Table 3 Unwashed, 1000 μg/ml): 1 (6-25% toxicity=1)
Tox. O.D. (Table 3 Unwashed, 2000 μg/ml): 1.061
Toxicity Percent (Table 3 Unwashed, 2000 μg/ml): -1.73%
Toxicity Score (Table 3 Unwashed, 2000 μg/ml): 0 (0-5% toxicity=0)
Tox. O.D. [2]: 1.121
Toxicity Percent [2]: -7.68%
Toxicity Score [2]: 0 (0-5% toxicity=0)
Tox. O.D. [3]: 1.019
Toxicity Percent [3]: 2.16%
Toxicity Score [3]: 0 (0-5% toxicity=0)
Tox. O.D. [4]: .963
Toxicity Percent [4]: 7.54%
Toxicity Score [4]: 1 (6-25% toxicity=1)
Tox. O.D. [5]: 1.061
Toxicity Percent [5]: -1.87%
Toxicity Score [5]: 0 (0-5% toxicity=0)
Tox. O.D. [6]: .962
Toxicity Percent [6]: 16.17%
Toxicity Score [6]: 1 (6-25% toxicity=1)
Tox. O.D. [7]: .878
Toxicity Percent [7]: 23.49%
Toxicity Score [7]: 1 (6-25% toxicity=1)
Tox. O.D. [8]: .923
Toxicity Percent [8]: 19.56%
Toxicity Score [8]: 1 (6-25% toxicity=1)
Tox. O.D. [9]: .871
Toxicity Percent [9]: 24.05%
Toxicity Score [9]: 1 (6-25% toxicity=1)
Tox. O.D. [10]: .850
Toxicity Percent [10]: 25.93%
Toxicity Score [10]: 1 (6-25% toxicity=1)
Tox. O.D. (Table 6, 2 mg/ml): 1.273
Toxicity Percent (Table 6, 2 mg/ml): 22.74%
Toxicity Score (Table 6, 2 mg/ml): 1 (6-25% toxicity=1)
